In ChEMBL document CHEMBL4725279, “Design and synthesis of peptide-based chimeric molecules to induce degradation of the estrogen and androgen receptors” (Bioorg Med Chem, 2020):

Experiments:
Assay type in all cases: cell-based
[1] = molecular target: T1, von Hippel-Lindau disease tumor suppressor/Aryl hydrocarbon receptor (Homo sapiens, UniProt P35869+P40337); assay: Protac activity at VHL/AhR in human MCF7 cells assessed as induction of AhR protein degradation by measuring AhR protein level at 20 uM incubated for 8 hrs by western blot analysis relative to lamin B; settings: mcf7, 8 h
T1 sequence (P35869 whole entry): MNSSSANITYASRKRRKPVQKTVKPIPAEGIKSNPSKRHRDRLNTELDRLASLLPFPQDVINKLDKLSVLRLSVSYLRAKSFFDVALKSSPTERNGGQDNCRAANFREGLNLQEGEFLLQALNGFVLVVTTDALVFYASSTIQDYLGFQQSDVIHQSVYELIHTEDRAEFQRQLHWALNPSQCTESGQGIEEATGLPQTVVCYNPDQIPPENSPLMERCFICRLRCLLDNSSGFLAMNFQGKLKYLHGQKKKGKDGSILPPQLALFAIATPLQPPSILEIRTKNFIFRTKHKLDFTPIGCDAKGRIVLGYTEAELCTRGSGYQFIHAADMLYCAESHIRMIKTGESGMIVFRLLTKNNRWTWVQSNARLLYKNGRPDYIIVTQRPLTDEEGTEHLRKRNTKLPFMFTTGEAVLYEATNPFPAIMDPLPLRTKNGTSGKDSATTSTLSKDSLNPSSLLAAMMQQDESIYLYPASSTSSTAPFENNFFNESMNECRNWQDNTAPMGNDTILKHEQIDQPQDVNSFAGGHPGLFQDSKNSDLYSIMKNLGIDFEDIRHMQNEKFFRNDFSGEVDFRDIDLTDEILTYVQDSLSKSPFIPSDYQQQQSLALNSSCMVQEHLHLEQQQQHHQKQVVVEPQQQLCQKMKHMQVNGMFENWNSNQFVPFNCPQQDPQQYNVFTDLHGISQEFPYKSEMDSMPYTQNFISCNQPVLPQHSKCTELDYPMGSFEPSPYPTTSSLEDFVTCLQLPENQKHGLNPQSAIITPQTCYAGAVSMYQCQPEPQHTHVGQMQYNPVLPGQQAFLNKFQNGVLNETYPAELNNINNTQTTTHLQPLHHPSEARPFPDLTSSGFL
T1 sequence (P40337 whole entry): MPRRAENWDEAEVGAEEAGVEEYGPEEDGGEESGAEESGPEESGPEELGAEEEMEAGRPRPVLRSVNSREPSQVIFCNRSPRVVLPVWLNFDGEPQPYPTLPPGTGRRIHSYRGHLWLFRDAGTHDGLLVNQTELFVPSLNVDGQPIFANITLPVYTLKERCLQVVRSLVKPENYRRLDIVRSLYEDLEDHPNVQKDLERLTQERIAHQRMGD

[2] = molecular target: T1, von Hippel-Lindau disease tumor suppressor/Aryl hydrocarbon receptor; assay: Protac activity at VHL/AhR in human MCF7 cells assessed as induction of AhR protein degradation by measuring AhR protein level at 5 uM incubated for 8 hrs by western blot analysis relative to lamin B; settings: mcf7, 8 h
[3] = molecular target: T1, von Hippel-Lindau disease tumor suppressor/Aryl hydrocarbon receptor; assay: Protac activity at VHL/AhR in human MCF7 cells assessed as induction of AhR protein degradation by measuring AhR protein level at 10 uM incubated for 24 hrs by western blot analysis relative to lamin B; settings: mcf7, 24 h
[4] = molecular target: T2, von Hippel-Lindau disease tumor suppressor/Estrogen receptor (Homo sapiens) (UniProt P03372+P40337); assay: Protac activity at VHL/ERalpha in human MCF7 cells assessed as induction of ERalpha protein degradation by measuring ERalpha protein level at 20 uM incubated for 24 hrs by western blot analysis relative to lamin B
T2 sequence (P03372 whole entry, looked up): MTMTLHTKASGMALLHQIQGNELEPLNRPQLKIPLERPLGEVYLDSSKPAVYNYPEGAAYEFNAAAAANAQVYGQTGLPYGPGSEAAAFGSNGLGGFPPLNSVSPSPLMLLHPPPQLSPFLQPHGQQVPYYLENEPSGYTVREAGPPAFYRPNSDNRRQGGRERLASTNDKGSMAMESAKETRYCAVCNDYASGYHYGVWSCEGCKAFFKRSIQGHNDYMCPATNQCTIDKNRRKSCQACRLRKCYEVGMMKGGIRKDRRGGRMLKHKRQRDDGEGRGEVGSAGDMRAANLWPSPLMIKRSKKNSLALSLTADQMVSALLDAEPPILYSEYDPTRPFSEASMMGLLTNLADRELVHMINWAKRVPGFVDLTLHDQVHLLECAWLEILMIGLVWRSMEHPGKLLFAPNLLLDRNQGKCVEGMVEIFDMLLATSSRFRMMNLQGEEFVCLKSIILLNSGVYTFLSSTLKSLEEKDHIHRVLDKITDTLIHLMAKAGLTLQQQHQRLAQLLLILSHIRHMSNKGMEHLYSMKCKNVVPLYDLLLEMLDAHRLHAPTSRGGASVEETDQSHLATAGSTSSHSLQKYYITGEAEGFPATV
T2 sequence (P40337 whole entry, looked up): as the sequence (P40337 whole entry) above

[5] = molecular target: T3, von Hippel-Lindau disease tumor suppressor/Androgen receptor (Homo sapiens) (UniProt P10275+P40337); assay: Protac activity at VHL/AR in human MCF7 cells assessed as induction of AR protein degradation by measuring AR protein level at 5 uM incubated for 24 hrs by western blot analysis relative to lamin B
T3 sequence (P10275 whole entry, looked up): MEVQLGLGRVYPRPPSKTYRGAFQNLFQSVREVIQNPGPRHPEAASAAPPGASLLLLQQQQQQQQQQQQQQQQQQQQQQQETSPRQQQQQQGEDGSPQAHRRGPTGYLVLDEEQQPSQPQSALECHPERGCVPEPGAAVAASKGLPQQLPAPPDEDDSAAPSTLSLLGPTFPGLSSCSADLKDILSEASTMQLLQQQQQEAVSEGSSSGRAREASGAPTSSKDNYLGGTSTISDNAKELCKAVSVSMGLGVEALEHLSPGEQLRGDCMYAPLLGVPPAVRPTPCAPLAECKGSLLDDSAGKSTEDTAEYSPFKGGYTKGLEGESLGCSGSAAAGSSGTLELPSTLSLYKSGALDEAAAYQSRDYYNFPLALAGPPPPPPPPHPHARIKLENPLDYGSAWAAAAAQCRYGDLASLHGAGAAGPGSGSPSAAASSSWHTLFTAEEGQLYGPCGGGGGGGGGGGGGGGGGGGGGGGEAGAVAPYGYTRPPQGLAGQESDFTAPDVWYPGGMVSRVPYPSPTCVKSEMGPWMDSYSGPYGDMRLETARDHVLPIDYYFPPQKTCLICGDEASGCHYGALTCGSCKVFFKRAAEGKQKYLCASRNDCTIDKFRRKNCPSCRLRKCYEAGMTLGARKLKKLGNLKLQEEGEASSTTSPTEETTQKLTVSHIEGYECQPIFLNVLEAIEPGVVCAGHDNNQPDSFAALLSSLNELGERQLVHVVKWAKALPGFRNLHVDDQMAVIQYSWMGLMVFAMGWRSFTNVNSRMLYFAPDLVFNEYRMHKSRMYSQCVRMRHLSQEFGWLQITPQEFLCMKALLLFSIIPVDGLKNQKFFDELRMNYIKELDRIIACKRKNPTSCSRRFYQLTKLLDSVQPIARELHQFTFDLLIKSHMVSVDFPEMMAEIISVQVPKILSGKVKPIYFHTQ
T3 sequence (P40337 whole entry, looked up): as the sequence (P40337 whole entry) above

[6] = molecular target: T3, von Hippel-Lindau disease tumor suppressor/Androgen receptor (Homo sapiens); assay: Protac activity at VHL/AR in human MCF7 cells assessed as induction of AR protein degradation incubated for 8 to 24 hrs by western blot analysis; settings: time hrs 8-24
[7] = molecular target: T1, von Hippel-Lindau disease tumor suppressor/Aryl hydrocarbon receptor; assay: Protac activity at VHL/AhR in human MCF7 cells assessed as induction of AhR protein degradation by measuring AhR protein level at 20 uM incubated for 24 hrs by western blot analysis relative to lamin B; settings: mcf7, 24 h
[8] = molecular target: T3, von Hippel-Lindau disease tumor suppressor/Androgen receptor (Homo sapiens); assay: Protac activity at VHL/AR in human MCF7 cells assessed as induction of AR protein degradation by measuring AR protein level at 5 uM incubated for 8 hrs by western blot analysis relative to lamin B
[9] = molecular target: T3, von Hippel-Lindau disease tumor suppressor/Androgen receptor (Homo sapiens); assay: Protac activity at VHL/AR in human MCF7 cells assessed as induction of AR protein degradation by measuring AR protein level at 20 uM incubated for 8 hrs by western blot analysis relative to lamin B
[10] = molecular target: T2, von Hippel-Lindau disease tumor suppressor/Estrogen receptor (Homo sapiens); assay: Protac activity at VHL/ERalpha in human MCF7 cells assessed as induction of ERalpha protein degradation by measuring ERalpha protein level at 10 uM incubated for 24 hrs by western blot analysis relative to lamin B
[11] = molecular target: T3, von Hippel-Lindau disease tumor suppressor/Androgen receptor (Homo sapiens); assay: Protac activity at VHL/AR in human MCF7 cells assessed as induction of AR protein degradation by measuring AR protein level at 20 uM incubated for 8 hrs in presence of ubiquitin activating inhibitor MLN7243 by western blot analysis relative to lamin B
[12] = molecular target: T1, von Hippel-Lindau disease tumor suppressor/Aryl hydrocarbon receptor; assay: Protac activity at VHL/AhR in human MCF7 cells assessed as induction of AhR protein degradation by measuring AhR protein level at 20 uM incubated for 8 hrs in presence of proteasome inhibitor, MG132 by western blot analysis relative to lamin B; settings: mcf7, 8 h
[13] = molecular target: T2, von Hippel-Lindau disease tumor suppressor/Estrogen receptor (Homo sapiens); assay: Protac activity at VHL/ERalpha in human MCF7 cells assessed as induction of ERalpha protein degradation by measuring ERalpha protein level at 20 uM incubated for 8 hrs by western blot analysis relative to lamin B
[14] = molecular target: T1, von Hippel-Lindau disease tumor suppressor/Aryl hydrocarbon receptor; assay: Protac activity at VHL/AhR in human MCF7 cells assessed as induction of AhR protein degradation by measuring AhR protein level at 20 uM incubated for 8 hrs in presence of ubiquitin activating inhibitor MLN7243 by western blot analysis relative to lamin B; settings: mcf7, 8 h
[15] = molecular target: T3, von Hippel-Lindau disease tumor suppressor/Androgen receptor (Homo sapiens); assay: Protac activity at VHL/AR in human MCF7 cells assessed as induction of AR protein degradation by measuring AR protein level at 20 uM incubated for 8 hrs in presence of proteasome inhibitor, MG132 by western blot analysis relative to lamin B
[16] = molecular target: T2, von Hippel-Lindau disease tumor suppressor/Estrogen receptor (Homo sapiens); assay: Protac activity at VHL/ERalpha in human MCF7 cells assessed as induction of ERalpha protein degradation by measuring ERalpha protein level at 20 uM incubated for 8 hrs in presence of ubiquitin activating inhibitor MLN7243 by western blot analysis relative to lamin B
[17] = molecular target: T2, von Hippel-Lindau disease tumor suppressor/Estrogen receptor (Homo sapiens); assay: Protac activity at VHL/ERalpha in human MCF7 cells assessed as induction of ERalpha protein degradation by measuring ERalpha protein level at 5 uM incubated for 24 hrs by western blot analysis relative to lamin B
[18] = molecular target: T2, von Hippel-Lindau disease tumor suppressor/Estrogen receptor (Homo sapiens); assay: Protac activity at VHL/ERalpha in human MCF7 cells assessed as induction of ERalpha protein degradation by measuring ERalpha protein level at 10 uM incubated for 8 hrs by western blot analysis relative to lamin B
[19] = molecular target: T3, von Hippel-Lindau disease tumor suppressor/Androgen receptor (Homo sapiens); assay: Protac activity at VHL/AR in human MCF7 cells assessed as induction of AR protein degradation by measuring AR protein level at 10 uM incubated for 8 hrs by western blot analysis relative to lamin B
[20] = molecular target: T2, von Hippel-Lindau disease tumor suppressor/Estrogen receptor (Homo sapiens); assay: Protac activity at VHL/ERalpha in human MCF7 cells assessed as induction of ERalpha protein degradation incubated for 8 to 24 hrs by western blot analysis; settings: time hrs 8-24
[21] = molecular target: T3, von Hippel-Lindau disease tumor suppressor/Androgen receptor (Homo sapiens); assay: Protac activity at VHL/AR in VHL siRNA-transfected human MCF7 cells assessed as induction of AR protein degradation by measuring AR protein level at 20 uM incubated for 8 hrs by western blot analysis relative to lamin B
[22] = molecular target: T2, von Hippel-Lindau disease tumor suppressor/Estrogen receptor (Homo sapiens); assay: Protac activity at VHL/ERalpha in VHL siRNA-transfected human MCF7 cells assessed as induction of ERalpha protein degradation by measuring ERalpha protein level at 20 uM incubated for 8 hrs by western blot analysis relative to lamin B
[23] = molecular target: T3, von Hippel-Lindau disease tumor suppressor/Androgen receptor (Homo sapiens); assay: Protac activity at VHL/AR in human MCF7 cells assessed as induction of AR protein degradation by measuring AR protein level at 20 uM incubated for 24 hrs by western blot analysis relative to lamin B
[24] = molecular target: T2, von Hippel-Lindau disease tumor suppressor/Estrogen receptor (Homo sapiens); assay: Protac activity at VHL/ERalpha in human MCF7 cells assessed as induction of ERalpha protein degradation by measuring ERalpha protein level at 5 uM incubated for 8 hrs by western blot analysis relative to lamin B
[25] = molecular target: T2, von Hippel-Lindau disease tumor suppressor/Estrogen receptor (Homo sapiens); assay: Protac activity at VHL/ERalpha in human MCF7 cells assessed as induction of ERalpha protein degradation by measuring ERalpha protein level at 20 uM incubated for 8 hrs in presence of proteasome inhibitor, MG132 by western blot analysis relative to lamin B
[26] = molecular target: T1, von Hippel-Lindau disease tumor suppressor/Aryl hydrocarbon receptor; assay: Protac activity at VHL/AhR in human MCF7 cells assessed as induction of AhR protein degradation by measuring AhR protein level at 10 uM incubated for 8 hrs by western blot analysis relative to lamin B; settings: mcf7, 8 h
[27] = molecular target: T1, von Hippel-Lindau disease tumor suppressor/Aryl hydrocarbon receptor; assay: Protac activity at VHL/AhR in human MCF7 cells assessed as induction of AhR protein degradation by measuring AhR protein level at 5 uM incubated for 24 hrs by western blot analysis relative to lamin B; settings: mcf7, 24 h
[28] = molecular target: T3, von Hippel-Lindau disease tumor suppressor/Androgen receptor (Homo sapiens); assay: Protac activity at VHL/AR in human MCF7 cells assessed as induction of AR protein degradation by measuring AR protein level at 10 uM incubated for 24 hrs by western blot analysis relative to lamin B

CC[C@H](C)[C@@H]1NC(=O)[C@H](NC(=O)[C@@H](N)CCCCNC(=O)CCCCC(=O)NCCOCCOCCOCC(=O)N[C@H](C(=O)N2C[C@H](O)C[C@H]2C(=O)NCc2ccc(-c3scnc3C)cc2)C(C)(C)C)CSSC[C@@H](C(=O)N[C@@H](CCCNC(=N)N)C(=O)N[C@@H](CC(C)(C)C)C(=O)N[C@@H](CC(C)C)C(=O)N[C@@H](CCC(N)=O)C(=O)NCC(=O)NCC(=O)NCC(=O)N[C@@H](CCCNC(=N)N)C(=O)N[C@@H](CCCNC(=N)N)C(=O)N[C@@H](CCCNC(=N)N)C(=O)N[C@@H](CCCNC(=N)N)C(=O)N[C@@H](CCCNC(=N)N)C(=O)N[C@@H](CCCNC(=N)N)C(=O)N[C@@H](CCCNC(=N)N)C(N)=O)NC(=O)[C@H](CC(C)C)NC1=O
Activity [1]: 105%
Activity [2]: 84%
Activity [3]: 100%
Activity [4]: 57%
Activity [5]: 97%
Activity [6]: Dose-dependent effect
Activity [7]: 97%
Activity [8]: 92%
Activity [9]: 54%
Activity [10]: 76%
Activity [11]: 102%
Activity [12]: 113%
Activity [13]: 64%
Activity [14]: 101%
Activity [15]: 97%
Activity [16]: 108%
Activity [17]: 86%
Activity [18]: 84%
Activity [19]: 75%
Activity [20]: Dose-dependent effect
Activity [21]: 98%
Activity [22]: 84%
Activity [23]: 90%
Activity [24]: 93%
Activity [25]: 92%
Activity [26]: 105%
Activity [27]: 83%
Activity [28]: 103%
